From patent US20090082271A1, “AGENTS THAT REDUCE APOE-INDUCED IMPAIRMENT OF MITOCHONDRIA AND METHODS OF USE THEREOF” (priority 2005, published 2009)
Entries after “also recorded” stand apart in the source; their conditions may differ.

How the values were obtained:
[1] = test system: differentiated PC12 cells; assay: Time-lapse fluorescence recording of mitochondrial motility and morphology in neurites of differentiated PC12 cells (dsRed2-Mito); conditions: for mitochondrial motility increased: nimodipine 5 μM and AP5 50 μM together (both antagonists), with different forms of apoE; for reduction of percentage of motile mitochondria in response to neuronal activation: apoE 7.5 μg/ml 24 h, then repetitive depolarizations with KCl
[2] = test system: rat primary cortical neurons
Neuro-2a cells = assay: MTT cell survival assay of Neuro-2a cells transiently transfected with apoE4 cDNA constructs; type: cell-based, mouse; conditions: expressed by transient transfection; 48 h after transfection; vs WT apoE4 / apoE4(1-272)
Protocol: Cell Culture and Transfection. […] ApoE4 expression levels were determined by anti-apoE western blotting of cell lysates and media. […] Thus, the results are not due to overexpression.
Cell Survival. […] Cell survival was estimated with an MTT colorimetric assay (52) 48 h after transfection.

[3] = test system: PC12 cells stably expressing various forms of apoE; assay: Mitochondrial dynamics in differentiated PC12 cells stably expressing various forms of apoE; type: cell-based, rat; conditions: endogenous (stably expressed) apoE, ~200 pg apoE per μg cellular protein; vs control
[4] = test system: rat primary hippocampal neurons; type: cell-based; conditions: apoE 7.5 μg/ml, 24 h
Text: FIGS. 12A and 12B. […] Scale bar=5 μm.

primary cortical neurons = assay: Number, occupancy and size of mitochondria in dendrites of primary cortical neurons; type: cell-based, rat; conditions: vs apoE3-treated cells or controls
[5] = repetitive depolarization with KCl 90 mM

Compound: NC(CCCP(=O)(O)O)C(=O)O (stereo not drawn) [AP5, 2-amino-5-phosphonovalerate]
- mitochondrial motility increased ([1]; 24 h): about 30%

Compound: [Cl-].[K+] [KCl]
- average moving velocity (anterograde direction) [1, 5]: drastically reduced
- mitochondrial moving velocity (distance/time moving) [1, 5]: unaltered; also recorded: did not affect
- net moving distance (anterograde direction) [1, 5]: drastically reduced
- retrograde motility [1, 5]: No significant changes
- mitochondrial index reduced ([1]; repetitive depolarizations with KCl (4×, 90 mM)): 22.5%

Compound: NC1=N[C@H](O)[C@H]2[C@H]3O[C@]4(O)O[C@@H]([C@@H](O)[C@@]2(N1)[C@@H]4O)[C@]3(O)CO [TTX, tetrodotoxin]
- differences in dendritic spine density between forms of apoE in the presence of TTX [2]: No significant differences
- differences in mitochondrial dynamics between forms of apoE in the presence of TTX [1]: No significant differences
- mitochondrial dynamics [1]: increased
- mitochondrial index [1]: without affecting; also recorded: not affected

Compound: COCCOC(=O)C1=C(C)NC(C)=C(C(=O)OC(C)C)C1c1cccc([N+](=O)[O-])c1 (stereo not drawn) [nimodipine]
- mitochondrial motility increased ([1]; 24 h): about 30%

Compound: L279Q: full-length WT apoE4 with single mutation L279Q
- neurotoxicity (cell survival, MTT assay) (Neuro-2a cells): as neurotoxic as apoE4(1-272)

Compound: Q284A: full-length WT apoE4 with single mutation Q284A
- neurotoxicity (cell survival, MTT assay) (Neuro-2a cells): as neurotoxic as apoE4(1-272)

Compound: aa241-272 of apoE4: lipid binding region alone of apoE4 (AKLEEQAQQIRLQAEAFQARLKSWFEPLVEDM; UniProt P02649 259-290, looked up, fragment)
- neurotoxicity (cell survival, MTT assay) (Neuro-2a cells): No neurotoxicity was observed

Compound: apoE3: recombinant apolipoprotein E3 isoform; also stably expressed in PC12 cells
- percentage of motile mitochondria reduced [3]: unaffected
- density of dendritic spines increased vs controls [4]: 11±4%
- density of dendritic spines increased vs controls ([2]; apoE 7.5 μg/ml, 24 h): 20±6%
- reduction of percentage of motile mitochondria in response to neuronal activation [1]: 58±6%
- average length of mitochondria ([1]; exogenous apoE 7.5 μg/ml, 24 h): did not
- mitochondrial motility / dynamics overall ([1]; exogenous apoE 7.5 μg/ml, 24 h): not affected
- mitochondrial motility / dynamics overall ([1]; exogenous apoE 7.5 μg/ml, 24 h, listed as ApoE3): did not alter mitochondrial dynamics significantly

Compound: apoE4: full-length human apolipoprotein E4 (SEQ ID NO:1); expressed from cDNA or added as recombinant protein
- density of dendritic spines decreased vs controls [4]: 19±5%
- density of dendritic spines reduced compared with apoE3 [4]: 28±4%
- number of mitochondria in dendritic spines (primary cortical neurons): many fewer mitochondria
- spinal density reduced in response to neuronal activation, compared to controls ([2]; apoE 7.5 μg/ml 24 h, repetitive KCl depolarization): 48±11%
- density of dendritic spines decreased vs controls ([2]; apoE 7.5 μg/ml, 24 h): 13±5%
- density of dendritic spines reduced compared with apoE3 ([2]; apoE 7.5 μg/ml, 24 h): 27±5%
- reduction of percentage of motile mitochondria in response to neuronal activation [1]: 30%
- average length of mitochondria ([1]; exogenous apoE 7.5 μg/ml, 24 h): significantly reduced
- retrograde velocity ([1]; exogenous apoE 7.5 μg/ml, 24 h): unaffected
